The target in data set [1] is T1, Ulp1 Hydrolase (Saccharomyces cerevisiae, UniProt Q02724).
T1 construct: C-terminal His-tagged SUMO hydrolase/protease Ulp (403–621)p (21) (27) was expressed from pET24d; His tag (C); made in house; host or cells: E. coli Rosetta (DE3) pLysS, vector pET24d
T1 sequence (Q02724 403-621): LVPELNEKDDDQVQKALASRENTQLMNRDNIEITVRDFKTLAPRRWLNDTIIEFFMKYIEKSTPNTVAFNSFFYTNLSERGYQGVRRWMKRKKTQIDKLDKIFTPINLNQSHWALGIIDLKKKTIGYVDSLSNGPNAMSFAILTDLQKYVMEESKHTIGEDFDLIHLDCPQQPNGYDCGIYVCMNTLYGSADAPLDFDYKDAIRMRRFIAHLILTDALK
Kind of data set: In vitro Ulp1 cleavage of His6SUMO-GFP under various additives/conditions. The data set is classed as biochemical, yeast. The settings on record: for Ulp1 activity remaining: 0.5 M Gdm HCl, hydrochloride. The method, then:
Ni-NTA purified His6SUMO-GFP was incubated with Ulp1 under the indicated conditions for one hour at room temperature unless indicated otherwise. Low molecular weight markers (LMW) are also provided.
Ni-NTA purified His6SUMO-GFP was incubated with Ulp1 and 10 mM of various protease inhibitors for 1 hour at room temperature. Lane markers: Norm is addition of Ulp1 and N-ethymaleimide (NEM) to the substrate at the same time, Pre is the incubation of Ulp1 with NEM prior to the addition of substrate, +Ve is the absence of any inhibitor, −Ve is in the absence of Ulp1, lane 1 is with E-64, lane 2 is with EDTA, lane 3 is with leupeptin, lane 4 is with NEM, lane 5 is with pepstatin, lane 6 is with TLCK. Low molecular weight markers (LMW) are also provided.
The effects of various additives/conditions and temperature upon the in vitro cleavage reaction were determined as follows: His6smt3MeGFP was expressed from pET24d in Rosetta (DE3) pLysS (Novagen). The recombinant protein was purified as before using Ni-NTA agarose (Qiagen) and then buffer exchanged into 20 mM Tris-HCl pH 8.0, 150 mM NaCl and 5 mM β-mercaptoethanol using a PD-10 column (AP Biotech). Cleavage reactions were performed with 100 ug of the purified protein, 0.5 ul of enzyme, the appropriate amount of a stock solution of additive to generate the final concentrations listed in Table 4, plus the exchange buffer up to a final volume of 200 ul. Reactions were incubated for 1 hour at 37° C. except for those at 4° C. were incubated for 3 hours. […] Generally, His tagged proteins are purified on nickel columns and eluted with imidazole.

Data set [2] relates to E. coli. Kind of data set: GFP fluorescence in soluble fractions of E. coli. The format is cell-based. The settings on record: 37° C., approx. 0.1 mg soluble protein, Ex 485 nm/Em 510 nm. As for the experimental part:
GFP fluorescence was measured in soluble fractions (approx. 0.1 mg of soluble protein in a final volume of 40 μl) using Fluoroscan Accent FL fluorometer (LabSystems) with Excitation 485 nm/Emission 510 nm filter set with the exposure set to 40 sec. The data are presented in Arbitrary Units (AU).
The design and construction of all the UBL E. coli expression vectors has been described above. The DNA sequences, accession numbers of the UBL-GFP fusion proteins, and translation frames are shown FIGS. 25–32. […] Un-fused GFP is generally poorly expressed in E. coli. […] Induced cells were broken by sonication and soluble proteins were analyzed on SDS-polyacrylamide gels. […] To determine if the fusion proteins were folded correctly, we determined the fluorescence properties of proteins in the soluble fraction.

In data set [3] the test system is E. coli. Kind of data set: Soluble versus insoluble fraction of fusion proteins expressed in E. coli. The data set is classed as cell-based. As for the experimental part:
E. coli were harvested by mild centrifugation and washed once with PBS buffer. Cells were resuspended in 4 ml of PBS and ruptured by several pulses of sonication. Unbroken cells were removed by mild centrifugation (5 min at 1500×g) and supernatants were sonicated again to ensure complete cell lysis. An aliquot (5 μl) was mixed with 2% SDS to ensure that no viscosity is detected owing to lysis of unbroken cells. After ensuring that no unbroken cells remained in the lysate, insoluble material consisting of cell walls, inclusion bodies and membrane fragments was sedimented by centrifugation (18,000×g for 10 min). The supernatant was considered “Soluble fraction”.
The pellets were washed from any remaining soluble proteins, lipids and peptidoglycan as follows. Pellets were resuspended in 600 μl of PBS and to the suspensions 600 μl of solution containing 3 M urea and 1% Tri ton X100 was added. The suspension was briefly vortexed and insoluble material was collected by centrifugation as above. […]
Human nuclear receptor proteins, such as steroid receptors, contain ligand-binding domains. […] The ligand-binding domain of LXR was expressed as SUMO fusion in Rosetta plysS cell at 20° C. or 37° C. and the pattern of soluble and insoluble protein was analyzed. […] The original induced culture (I), supernatant from lysed cells (S) and resuspended pellet (P) were analyzed on 12% SDS-PAGE. […]

In data set [4] the target is T2, SUMO hydrolase Ulp1 (Saccharomyces cerevisiae, UniProt Q02724).
T2 construct: C-terminal His-tagged SUMO hydrolase/protease Ulp (403–621)p (21) (27) was expressed from pET24d; His tag (C); made in house; host or cells: E. coli Rosetta (DE3) pLysS, vector pET24d
T2 sequence (Q02724 403-621): T1 sequence (Q02724 403-621)
Kind of data set: In vitro cleavage of purified SUMO fusion proteins by SUMO hydrolase Ulp1. The data set is classed as biochemical, yeast.

The mark [5] stands for this setting: protease inhibitors, 10 mM per FIG. 17 legend.

Results on 14 compounds are retold here after patent US7220576B2, “Methods and compositions for protein expression and purification” (Lifesensors, Inc., priority 2002, dated 2007).

Where “and” joins values, the source holds several entries; their conditions need not be identical. Equal values may be shown once. Entries after “also recorded” stand apart in the source; their conditions may differ. Non-standard residues stand in square brackets, D forms with d. Residues, ends and D or L forms follow the SMILES beside them. *: point of attachment. Sta = CC(C)C[C@H](N)[C@@H](O)CC(=O)O; Isovaleryl = CC(C)CC(=O)*

On to `CC(C)C[C@H](NC(=O)[C@H]1O[C@@H]1C(=O)O)C(=O)NCCCCN=C(N)N` [E-64], for which the “Effect of protease inhibitor on Ulp1 hydrolase activity” value (shortened to “Effect of protease inhibitor”) in data set [1] (setting [5]) was “Cysteine protease inhibitor; no affect”. On the same count and under the same terms, as for `O=C(O)CN(CCN(CC(=O)O)CC(=O)O)CC(=O)O` [EDTA], the entry is “no effect; also recorded: Metalloprotease inhibitor; no affect”. As for `Cl.N=C(N)N` [Gdm HCl, guanadinium hydrochloride], the values for the Ulp1 activity remaining result in data set [1] and in data set [1] (listed as guanadinium hydrochloride) were “Ulp1 shows 50% activity in 0.5 M but is completely” and 50%, respectively. In addition, the “Effect on Ulp1 hydrolase activity” value in data set [1] (1 M Gdm HCl) is “inactive in 1 M concentrations”.

As for `c1c[nH]cn1` [Imidazole], the “Effect on Ulp1 hydrolase activity” value in data set [1] (imidazole 0 to 300 mM) is listed as “Ulp1 shows similar activity in the range of”; in data set [1] (imidazole 0 to 300 mM, listed as imidazole), “remarkably active”. Turning to `CC(=O)N[C@@H](CC(C)C)C(=O)N[C@@H](CC(C)C)C(=O)N[C@H](C=O)CCCNC(=N)N` [Leupeptin], in data set [1] (setting [5]), the “Effect of protease inhibitor” value is “no effect; also recorded: like specificity; no affect”. Take `CCN1C(=O)C=CC1=O` [N-ethylmaleimide]: in data set [1] (enzyme preincubated with inhibitor before addition of substrate, listed as N-ethymaleimide), the “Effect of protease inhibitor” value is reported as “active”. As for `O=S(=O)(F)Cc1ccccc1` [PMSF], in data set [1] (setting [5]), the “Effect of protease inhibitor” value is “no effect; also recorded: Serine protease inhibitor; no affect”.

For `CC(C)CC(=O)N[C@H](C(=O)N[C@H](C(=O)N[C@@H](CC(C)C)[C@@H](O)CC(=O)N[C@@H](C)C(=O)N[C@@H](CC(C)C)[C@@H](O)CC(=O)O)C(C)C)C(C)C` [Pepstatin] (Isovaleryl-VV[Sta]A[Sta]-OH), in data set [1] (setting [5]), the “Effect of protease inhibitor” value was “no effect; also recorded: Aspartate protease inhibitor; no affect”. With `CCCCCCCCCCCCOS(=O)(=O)[O-].[Na+]` [SDS], the “Effect on Ulp1 hydrolase activity” value in data set [1] (0.01% SDS) is “highly active and 0.01% SDS blocks activity”.

In the case of `Cc1ccc(S(=O)(=O)N[C@@H](CCCCN)C(=O)CCl)cc1.Cl` [TLCK-HCl], the “Effect of protease inhibitor” value is on record as “chymotrypsin-like specificity; no affect” in data set [1] (setting [5]) and “no effect” in data set [1] (protease inhibitors, 10 mM per FIG. 17 legend, listed as TLCK). Regarding `NC(N)=O` [Urea], the “Effect on Ulp1 hydrolase activity” value in data set [1] (urea up to and including 2 M, listed as urea) is “did not effect the activity; also recorded: does not inhibit the hydrolase”. In the case of “SUMO-GFP: SUMO fused to N-terminus of GFP (SEQ ID NO: 5)”, in data set [2], the “GFP fluorescence of soluble fraction (correct folding)” value was “able to fluoresce”. Moreover, the “Solubility of UBL-GFP fusion (soluble panel of stained gel)” value in data set [3] (26° C. overnight, FIG. 4B) was “able to solubilize fused GFP”; in data set [3] (37° C., FIG. 4A) it was “able to solublize the GFP”. Besides, the “In vitro cleavage by Ulp1 / SUMO hydrolase” value in data set [4] (purified fusion protein from E. coli) is “completely digested”. For the compound “SUMO-β-galactosidase: SUMO fusion of E. coli β-galactosidase, a 110 KDa protein (SEQ ID NO: 31)”, the “Share of protein cleaved by SUMO hydrolase” value in data set [4] (20 minutes, room temperature) came out at 100%. Take Triton-X: the “Effect on Ulp1 hydrolase activity” value in data set [1] (up to 1% triton X 100) is given as “highly active”.
